Assay results as given in patent US20250114338A1, “TETRAHYDRO-PYRIDO[3,4-b]INDOLE ESTROGEN RECEPTOR MODULATORS AND USES THEREOF” (Genentech, Inc., priority 2014, published 2025).

Key:
immature rat uterus = assay: Immature Uterine Wet Weight Assay, agonist mode (Example 906); type: in vivo; conditions: dosed PO, QDx3, uterine wet weight:body weight ratio, endometrial height
Procedure: All of the exemplary Formula I compounds in Tables 1 and 2 were made and characterized by LCMS [M+H]^+ (liquid chromatography mass spectroscopy) with detection of parent ion. […] ER-alpha MCF7 HCS Sinf (%) values in Table 1 were measured by the Breast Cancer Cell ERa High Content Fluorescence Imaging Degradation Assay of Example 901. […] RTP, 25 (3):226-31). […] Where more than one name is associated with a Formula I compound or intermediate, the chemical structure shall define the compound. Female immature CD-IGS rats (21 days old upon arrival) are treated for three days. Animals are dosed daily for three days. […] For Agonist Mode, Vehicle or test compound is administered orally by gavage. On the fourth day 24 hours after dose, plasma is collected for pharmacokinetic analysis. Immediately following plasma collection, the animals are euthanized and the uterus removed and weighed. […] Stained tissues are analyzed and read by a board certified pathologist. Uteri and ovaries from 4 animals per group are flash frozen in liquid N2 for transcriptional analysis, examining a select set of genes modulated by the estrogen receptor. […] U.S. Pat. […] Vehicle and Vehicle plus ethynyl estradiol (EE). All compounds were dosed PO, QDx3. Uterine Wet Weight (UWW): Body Weight ratios were calculated. The mean Endometrial Height of Uterine cross sections were measured by histology. Endometrial cell height was measured from the basement membrane to the apical (luminal) surface using a slide viewer at 20× magnification. Obliquely cut areas were avoided.

[1] = molecular target: estrogen receptor alpha (ESR1) in MCF7 breast cancer cells (Homo sapiens (Human), UniProt P03372); assay: Breast Cancer Cell ERa High Content Fluorescence Imaging Degradation Assay (Example 901); type: cell-based; conditions: 4 hours, plateau of maximal effect, 0% = DMSO, 100% change = 5 nM Fulvestrant
Procedure: Where more than one name is associated with a Formula I compound or intermediate, the chemical structure shall define the compound. […] Cell plates were incubated at 37° C., for 4 hours. Fixation and permeabilization were carried out using a Biotek EL406 plate washer and dispenser as follows. […] Well contents were aspirated and washed 3 times with 100 μL/well of PBS. […] Samples were incubated for 2 hours at room temperature. […] Samples were incubated for 2 hours at room temperature. […] Quantitative fluorescence imaging of ESR1 was carried out using a Cellomics Arrayscan V (Thermo). […] Channel 1 (DNA stain) was used to define the nuclear region (Circ). […] The “Robust Fit” method was used to define the inflexion point of curve (EC50) and the plateau of the maximal effect (Sinf).

estrogen receptor alpha (ESR1) in MCF7 breast cancer cells, sequence (P03372 whole entry): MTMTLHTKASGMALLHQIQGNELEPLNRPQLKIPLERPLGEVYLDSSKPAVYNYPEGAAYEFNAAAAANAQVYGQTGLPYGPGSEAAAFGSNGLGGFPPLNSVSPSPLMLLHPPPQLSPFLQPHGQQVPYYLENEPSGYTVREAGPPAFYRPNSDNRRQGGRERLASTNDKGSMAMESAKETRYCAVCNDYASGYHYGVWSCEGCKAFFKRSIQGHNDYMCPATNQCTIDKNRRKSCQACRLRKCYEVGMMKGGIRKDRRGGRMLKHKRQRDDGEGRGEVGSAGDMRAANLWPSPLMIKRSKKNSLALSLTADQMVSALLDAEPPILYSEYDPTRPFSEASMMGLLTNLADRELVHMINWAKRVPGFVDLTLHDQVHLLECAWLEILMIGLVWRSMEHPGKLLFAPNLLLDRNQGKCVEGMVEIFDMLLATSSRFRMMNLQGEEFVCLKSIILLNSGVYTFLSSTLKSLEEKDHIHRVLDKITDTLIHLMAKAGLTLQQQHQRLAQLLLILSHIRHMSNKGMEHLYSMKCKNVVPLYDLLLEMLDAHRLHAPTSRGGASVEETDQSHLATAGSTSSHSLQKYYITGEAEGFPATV

| Structure (SMILES) | agonist mode UWW assay: antagonist / partial agonist (immature rat uterus) | ER-alpha MCF7 HCS Sinf (%) [1] [%] |
| --- | --- | --- |
| C[C@@H]1Cc2c([nH]c3ccccc23)[C@@H](c2c(F)cc(/C=C/C(=O)O)cc2F)N1CC(C)(C)F [AZD9496, reference compound] | partial agonist | – |
| C[C@@H]1Cc2c([nH]c3ccccc23)[C@@H](c2c(F)cc(OC3CN(CCCF)C3)cc2F)N1CC(C)(C)F [Example 101, (1R,3R)-1-(2,6-difluoro-4-((1-(3-fluoropropyl)azetidin-3-yl)oxy)phenyl)-2-(2-fluoro-2-methylpropyl)-3-methyl-2,3,4,9-tetrahydro-1H-pyrido[3,4-b]indole] | antagonists | −100 |
| C[C@@H]1Cc2c([nH]c3ccccc23)[C@@H](c2c(F)cc(OCCN3CC(CF)C3)cc2F)N1CC(C)(C)F [Example 102, (1R,3R)-1-(2,6-difluoro-4-(2-(3-(fluoromethyl)azetidin-1-yl)ethoxy)phenyl)-2-(2-fluoro-2-methylpropyl)-3-methyl-2,3,4,9-tetrahydro-1H-pyrido[3,4-b]indole] | antagonists | −98.9 |
